Laboratory results reported in patent US9809623B2, “α4β7 peptide monomer and dimer antagonists” (Protagonist Therapeutics, Inc., priority 2014, dated 2017).
Like-named read-outs stand apart in the source and are kept apart here. Numbered stars: 1 amine (or outer) side, 2 acyl side, 3 side chain; on linkers, the order of the positions; unused ones are H or OH. Bridge positions count the residues as written; N and C are the ends. Square brackets hold non-standard residues; d marks the D form. Peptide text beside a SMILES is read from it. I, II: the chains in the order shown. Phe(4-CF3) = N[C@@H](Cc1ccc(C(F)(F)F)cc1)C(=O)O; Phe(4-tBu) = CC(C)(C)c1ccc(C[C@H](N)C(=O)O)cc1; Diglycolyl = O=C(COCC(=O)[*:2])[*:1]; NMeR = CN[C@@H](CCCNC(=N)N)C(=O)O; β3hE = N[C@@H](CCC(=O)O)CC(=O)O; NMeK = CN[C@@H](CCCCN)C(=O)O; Pen = CC(C)(S)[C@H](N)C(=O)O

Columns and labels:
[1] = Simulated Intestinal Fluid (SIF) Stability Assay; assay type: in vitro ADME, porcine; conditions: pig, pH 6.5, Table 3-B
Protocol: Studies were carried out in simulated intestinal fluid (SIF) to evaluate intestinal stability of the peptide molecules of the instant invention. To prepare the SIF reagent, blank FASSIF was prepared by dissolving 0.348 g NaOH, 3.954 g sodium phosphate monobasic monohydrate and 6.186 g NaCl in a final volume of 1 liter water (final pH=6.5). To this solution, 24 g porcine pancreatin (Sigma catalog P7545) was added and stirred for 30 minutes (final pancreatin concentration is 2.4%). The solution was filtered through a cheese cloth and a No. 1 Whatman filter, and 10 ml aliquots were stored at −70° C. To run the reaction, a 10 ml aliquot was thawed at 37° C., and 125 ul aliquots were removed and mixed with an equal volume of blank FASSIF. The peptide stock solution (10 mM in 100% DMSO) was diluted 75-fold in blank FASSIF. A 50 μl aliquot of the diluted peptide was combined with 125 μl pancreatin (2.4%) and 125 μl blank FASSIF to yield final concentrations of 1% pancreatin and 22 μM peptide. The reactions were incubated at 37° C., and at various time points 50 μl aliquots were removed and added to 200 μl of quench solution containing 50% acetonitrile, 50% methanol, 5% formic acid, and 1 μg/ml internal standard. The quenched samples were centrifuged at 10,000 rpm for 10 minutes, and the supernatants were analyzed by LCMS/MS. The percent remaining at each time point was calculated based on the peak area response ratio of test to compound to internal standard. Half-lives were calculated by fitting to a first-order exponential decay equation using GraphPad.

α4β7 = α4β7 (Homo sapiens, UniProt P13612+P26010); experiment: α4β7-MAdCAM Cell Adhesion Assay (RPMI 8866 human cells); assay type: cell-based; parameters: host or cells: RPMI 8866 human B lymphoblastoid cells; conditions: Table 3-B, Potency (α4β7); range classes; read-out: α4β7 cell (Hu) IC50
In short: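 Washed RPMI 8866 cells (200,000/well) in DMEM with 0.1% BSA, 10 mM HEPES pH 7, 1 mM MnCl2 adhered to rh MAdCAM-1/Fc-coated wells with serially diluted peptides, 30-45 min at 37 °C. After three washes, bound cells quantified by MTT, A570, cell-free background subtracted for dose response.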

[2] = simulated intestinal fluid (SIF) with porcine pancreatin, > means experiment was stopped at that time and half life was not reached, read-out: Stabilty SIF t1/2
[3] = simulated intestinal fluid (SIF) with 1% porcine pancreatin, > means experiment was stopped at that time and half life was not reached, read-out: Stabilty SIF t1/2
[4] = simulated intestinal fluid (SIF) with porcine pancreatin, alone or in parentheses after >360, read-out: Stabilty SIF t1/2, in hr (converted)

Sequence of α4β7 (P13612 34-1032): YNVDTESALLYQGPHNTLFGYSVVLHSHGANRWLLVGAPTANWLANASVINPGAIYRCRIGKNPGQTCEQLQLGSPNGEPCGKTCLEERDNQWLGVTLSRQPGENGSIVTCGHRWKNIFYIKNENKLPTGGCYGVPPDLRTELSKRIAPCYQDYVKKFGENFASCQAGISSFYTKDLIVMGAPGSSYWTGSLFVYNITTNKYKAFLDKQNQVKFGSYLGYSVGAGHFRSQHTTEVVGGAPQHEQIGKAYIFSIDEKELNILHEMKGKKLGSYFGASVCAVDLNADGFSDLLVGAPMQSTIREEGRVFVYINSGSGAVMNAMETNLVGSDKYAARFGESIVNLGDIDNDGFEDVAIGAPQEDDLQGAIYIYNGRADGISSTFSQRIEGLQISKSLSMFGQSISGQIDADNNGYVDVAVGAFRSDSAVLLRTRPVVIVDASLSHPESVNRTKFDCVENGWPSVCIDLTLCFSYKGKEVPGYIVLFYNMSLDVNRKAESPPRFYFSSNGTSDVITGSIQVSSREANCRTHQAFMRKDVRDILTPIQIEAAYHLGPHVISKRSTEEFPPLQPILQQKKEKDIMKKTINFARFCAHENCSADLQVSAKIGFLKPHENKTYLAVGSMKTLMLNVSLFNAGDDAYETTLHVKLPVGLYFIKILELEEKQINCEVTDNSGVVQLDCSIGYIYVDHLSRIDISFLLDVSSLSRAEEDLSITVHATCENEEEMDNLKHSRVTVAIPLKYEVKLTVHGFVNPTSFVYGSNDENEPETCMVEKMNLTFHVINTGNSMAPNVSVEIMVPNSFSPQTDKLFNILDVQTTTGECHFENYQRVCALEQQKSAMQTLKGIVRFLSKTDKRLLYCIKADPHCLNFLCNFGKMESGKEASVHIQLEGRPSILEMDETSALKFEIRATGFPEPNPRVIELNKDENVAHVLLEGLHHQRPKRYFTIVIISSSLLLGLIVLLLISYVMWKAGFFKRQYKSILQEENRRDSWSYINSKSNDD
Sequence of α4β7 (P26010 20-798): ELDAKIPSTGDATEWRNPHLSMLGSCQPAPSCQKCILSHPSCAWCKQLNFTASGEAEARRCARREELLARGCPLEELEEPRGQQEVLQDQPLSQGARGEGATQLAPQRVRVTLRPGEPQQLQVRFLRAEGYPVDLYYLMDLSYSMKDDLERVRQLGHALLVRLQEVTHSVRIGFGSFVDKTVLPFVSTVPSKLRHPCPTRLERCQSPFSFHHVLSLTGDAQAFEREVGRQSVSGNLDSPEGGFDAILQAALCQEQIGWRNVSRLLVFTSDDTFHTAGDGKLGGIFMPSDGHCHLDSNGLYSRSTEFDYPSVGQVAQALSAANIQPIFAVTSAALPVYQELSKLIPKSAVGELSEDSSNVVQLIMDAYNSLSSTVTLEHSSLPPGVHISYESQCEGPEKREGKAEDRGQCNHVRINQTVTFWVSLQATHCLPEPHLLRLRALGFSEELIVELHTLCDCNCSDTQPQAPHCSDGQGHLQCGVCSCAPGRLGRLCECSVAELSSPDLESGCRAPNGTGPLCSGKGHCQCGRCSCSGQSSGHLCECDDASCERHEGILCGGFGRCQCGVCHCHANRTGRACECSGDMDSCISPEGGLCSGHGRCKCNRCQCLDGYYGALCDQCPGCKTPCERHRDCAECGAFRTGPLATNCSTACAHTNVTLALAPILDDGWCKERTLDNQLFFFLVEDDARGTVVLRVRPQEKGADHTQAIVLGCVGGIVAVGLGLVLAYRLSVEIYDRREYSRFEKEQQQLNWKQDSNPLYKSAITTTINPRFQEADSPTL

`CC(=O)N[C@@H]1C(=O)N(C)[C@@H](CCCNC(=N)N)C(=O)N[C@@H](CO)C(=O)N[C@@H](CC(=O)O)C(=O)N[C@@H]([C@@H](C)O)C(=O)N[C@@H](CC(C)C)C(=O)N[C@H](C(=O)N[C@@H](Cc2ccc(C(C)(C)C)cc2)C(=O)N[C@@H](CCC(=O)O)CC(=O)N[C@H](CCCCNC(=O)CN(CC(=O)NCCCC[C@@H](NC(=O)C[C@H](CCC(=O)O)NC(=O)[C@H](Cc2ccc(C(C)(C)C)cc2)NC(=O)[C@H]2NC(=O)[C@H](CC(C)C)NC(=O)[C@H]([C@@H](C)O)NC(=O)[C@H](CC(=O)O)NC(=O)[C@H](CO)NC(=O)[C@H](CCCNC(=N)N)N(C)C(=O)[C@@H](NC(C)=O)C(C)(C)SSC2(C)C)C(N)=O)C(=O)CCNC(=O)CCCCCC2(C)C(=CC=CC=CC3=[N+](CCCS(=O)(=O)[O-])c4ccc(S(=O)(=O)O)cc4C3(C)C)N(CCCS(=O)(=O)O)c3ccc(S(=O)(=O)O)cc32)C(N)=O)C(C)(C)SSC1(C)C` (single isomer, unassigned) [compound 183] gave a half-life at 22 μM [1, 2] greater than 3 h and a half-life at 22 μM ([1]; simulated intestinal fluid (SIF) with porcine pancreatin, in parentheses after >180, read-out: Stabilty SIF t1/2, value in parentheses) of 7.77 h.
In the case of `CC(=O)N[C@@H]1C(=O)N(C)[C@@H](CCCNC(=N)N)C(=O)N[C@@H](CO)C(=O)N[C@@H](CC(=O)O)C(=O)N[C@@H]([C@@H](C)O)C(=O)N[C@@H](CC(C)C)C(=O)N[C@H](C(=O)N[C@@H](Cc2c[nH]c3ccccc23)C(=O)N[C@@H](CCC(=O)O)CC(=O)N[C@H](CCCCNC(=O)COCC(=O)NCCCC[C@@H](NC(=O)C[C@H](CCC(=O)O)NC(=O)[C@H](Cc2c[nH]c3ccccc23)NC(=O)[C@H]2NC(=O)[C@H](CC(C)C)NC(=O)[C@H]([C@@H](C)O)NC(=O)[C@H](CC(=O)O)NC(=O)[C@H](CO)NC(=O)[C@H](CCCNC(=N)N)N(C)C(=O)[C@@H](NC(C)=O)C(C)(C)SSC2(C)C)C(N)=O)C(N)=O)C(C)(C)SSC1(C)C` [compound 1] (I: Ac-[Pen][NMeR]SDTL[Pen]W[β3hE][dK]-NH2 / II: Ac-[Pen][NMeR]SDTL[Pen]W[β3hE][dK]-NH2; disulfide I:1-I:7, II:1-II:7; linker I:10-II:10 via Diglycolyl), the IC50 (α4β7) is reported as 50 to 100 nM and the half-life at 22 μM [1, 3] is reported as greater than 3 h.
`CC(=O)N[C@@H]1C(=O)N(C)[C@@H](CCCNC(=N)N)C(=O)N[C@@H](CO)C(=O)N[C@@H](CC(=O)O)C(=O)N[C@@H]([C@@H](C)O)C(=O)N[C@@H](CC(C)C)C(=O)N[C@H](C(=O)N[C@H](Cc2ccccc2)C(=O)N[C@H](CCC(=O)O)C(=O)N[C@H](CCCCNC(=O)COCC(=O)NCCCC[C@@H](NC(=O)[C@@H](CCC(=O)O)NC(=O)[C@@H](Cc2ccccc2)NC(=O)[C@H]2NC(=O)[C@H](CC(C)C)NC(=O)[C@H]([C@@H](C)O)NC(=O)[C@H](CC(=O)O)NC(=O)[C@H](CO)NC(=O)[C@H](CCCNC(=N)N)N(C)C(=O)[C@@H](NC(C)=O)C(C)(C)SSC2(C)C)C(N)=O)C(N)=O)C(C)(C)SSC1(C)C` [compound 2] (I: Ac-[Pen][NMeR]SDTL[Pen][dF][dE][dK]-NH2 / II: Ac-[Pen][NMeR]SDTL[Pen][dF][dE][dK]-NH2; disulfide I:1-I:7, II:1-II:7; linker I:10-II:10 via Diglycolyl) showed an IC50 (α4β7) of 100 to 500 nM and a half-life at 22 μM [1, 3] greater than 3 h.
For `CC(=O)N[C@@H]1C(=O)N(C)[C@@H](CCCNC(=N)N)C(=O)N[C@@H](CO)C(=O)N[C@@H](CC(=O)O)C(=O)N[C@@H]([C@@H](C)O)C(=O)N[C@@H](CC(C)C)C(=O)N[C@H](C(=O)N[C@@H](Cc2ccc(C(F)(F)F)cc2)C(=O)N[C@H](CCC(=O)O)C(=O)N[C@H](CCCCNC(=O)COCC(=O)NCCCC[C@@H](NC(=O)[C@@H](CCC(=O)O)NC(=O)[C@H](Cc2ccc(C(F)(F)F)cc2)NC(=O)[C@H]2NC(=O)[C@H](CC(C)C)NC(=O)[C@H]([C@@H](C)O)NC(=O)[C@H](CC(=O)O)NC(=O)[C@H](CO)NC(=O)[C@H](CCCNC(=N)N)N(C)C(=O)[C@@H](NC(C)=O)C(C)(C)SSC2(C)C)C(N)=O)C(N)=O)C(C)(C)SSC1(C)C` [compound 3] (I: Ac-[Pen][NMeR]SDTL[Pen][Phe(4-CF3)][dE][dK]-NH2 / II: Ac-[Pen][NMeR]SDTL[Pen][Phe(4-CF3)][dE][dK]-NH2; disulfide I:1-I:7, II:1-II:7; linker I:10-II:10 via Diglycolyl), the half-life at 22 μM [1, 2] was greater than 3 h.
Work on `CC(=O)N[C@@H]1CCCCNC(=O)COCC(=O)NCCCC[C@@H](NC(C)=O)C(=O)N[C@H]2CSSC[C@H](NC(=O)[C@H](CC(C)C)NC(=O)[C@H]([C@@H](C)O)NC(=O)[C@H](CC(=O)O)NC(=O)[C@H](CO)NC(=O)[C@H](CCCNC(=N)N)N(C)C2=O)C(=O)N[C@@H](Cc2c[nH]c3ccccc23)C(=O)N[C@@H](C(N)=O)CCCCNC(=O)COCC(=O)NCCCC[C@H](C(N)=O)NC(=O)[C@H](Cc2c[nH]c3ccccc23)NC(=O)[C@@H]2CSSC[C@H](NC1=O)C(=O)N(C)[C@@H](CCCNC(=N)N)C(=O)N[C@@H](CO)C(=O)N[C@@H](CC(=O)O)C(=O)N[C@@H]([C@@H](C)O)C(=O)N[C@@H](CC(C)C)C(=O)N2` [compound 5] (I: Ac-[dK]C[NMeR]SDTLCW[dK]-NH2 / II: Ac-[dK]C[NMeR]SDTLCW[dK]-NH2; linker I:1-II:1, I:10-II:10 via Diglycolyl; disulfide I:2-I:8, II:2-II:8) yielded a half-life at 22 μM [1, 2] of 0.1 h.
Molecule `CC(=O)N[C@@H]1C(=O)N(C)[C@@H](CCCNC(=N)N)C(=O)N[C@@H](CO)C(=O)N[C@@H](CC(=O)O)C(=O)N[C@@H]([C@@H](C)O)C(=O)N[C@@H](CC(C)C)C(=O)N[C@H](C(=O)N[C@@H](Cc2ccc(C(C)(C)C)cc2)C(=O)N[C@@H](CCC(=O)O)C(=O)N[C@H](CCCCNC(=O)COCC(=O)NCCCC[C@@H](NC(=O)[C@H](CCC(=O)O)NC(=O)[C@H](Cc2ccc(C(C)(C)C)cc2)NC(=O)[C@H]2NC(=O)[C@H](CC(C)C)NC(=O)[C@H]([C@@H](C)O)NC(=O)[C@H](CC(=O)O)NC(=O)[C@H](CO)NC(=O)[C@H](CCCNC(=N)N)N(C)C(=O)[C@@H](NC(C)=O)C(C)(C)SSC2(C)C)C(N)=O)C(N)=O)C(C)(C)SSC1(C)C` [compound 131] (I: Ac-[Pen][NMeR]SDTL[Pen][Phe(4-tBu)]E[dK]-NH2 / II: Ac-[Pen][NMeR]SDTL[Pen][Phe(4-tBu)]E[dK]-NH2; disulfide I:1-I:7, II:1-II:7; linker I:10-II:10 via Diglycolyl) has a half-life at 22 μM [1, 2] greater than 6 h and a half-life at 22 μM [1, 4] of 9 h.
For `CC(=O)N[C@@H]1C(=O)N(C)[C@@H](CCCNC(=N)N)C(=O)N[C@@H](CO)C(=O)N[C@@H](CC(=O)O)C(=O)N[C@@H]([C@@H](C)O)C(=O)N[C@@H](CC(C)C)C(=O)N[C@H](C(=O)N[C@@H](Cc2ccc(C(C)(C)C)cc2)C(=O)N[C@@H](CCC(=O)O)C(=O)N(C)[C@@H](CCCCNC(=O)COCC(=O)NCCCC[C@@H](C(N)=O)N(C)C(=O)[C@H](CCC(=O)O)NC(=O)[C@H](Cc2ccc(C(C)(C)C)cc2)NC(=O)[C@H]2NC(=O)[C@H](CC(C)C)NC(=O)[C@H]([C@@H](C)O)NC(=O)[C@H](CC(=O)O)NC(=O)[C@H](CO)NC(=O)[C@H](CCCNC(=N)N)N(C)C(=O)[C@@H](NC(C)=O)C(C)(C)SSC2(C)C)C(N)=O)C(C)(C)SSC1(C)C` [compound 133] (I: Ac-[Pen][NMeR]SDTL[Pen][Phe(4-tBu)]E[NMeK]-NH2 / II: Ac-[Pen][NMeR]SDTL[Pen][Phe(4-tBu)]E[NMeK]-NH2; disulfide I:1-I:7, II:1-II:7; linker I:10-II:10 via Diglycolyl), the half-life at 22 μM [1, 2] was greater than 6 h and the half-life at 22 μM [1, 4] was 11 h.
For `CC(=O)N[C@@H]1C(=O)N(C)[C@@H](CCCNC(=N)N)C(=O)N[C@@H](CO)C(=O)N[C@@H](CC(=O)O)C(=O)N[C@@H]([C@@H](C)O)C(=O)N[C@@H](CC(C)C)C(=O)N[C@H](C(=O)N[C@@H](Cc2ccc(C(C)(C)C)cc2)C(=O)N[C@@H](CCC(=O)O)CC(=O)N[C@H](CCCCNC(=O)CN(CC(=O)NCCCC[C@@H](NC(=O)C[C@H](CCC(=O)O)NC(=O)[C@H](Cc2ccc(C(C)(C)C)cc2)NC(=O)[C@H]2NC(=O)[C@H](CC(C)C)NC(=O)[C@H]([C@@H](C)O)NC(=O)[C@H](CC(=O)O)NC(=O)[C@H](CO)NC(=O)[C@H](CCCNC(=N)N)N(C)C(=O)[C@@H](NC(C)=O)C(C)(C)SSC2(C)C)C(N)=O)C(=O)CCNC(=O)c2ccc(-c3c4ccc(=N)c(S(=O)(=O)O)c-4oc4c(S(=O)(=O)O)c(N)ccc34)c(C(=O)O)c2)C(N)=O)C(C)(C)SSC1(C)C` [compound 182], the half-life at 22 μM [1, 2] was greater than 3 h.
